Experiment in all cases: ROR modulator nuclear receptor reporter panel, late-stage follow-up, ROR modulator project, cell-based, luciferase reporter (AID 2117)
Background: Reporter assays use an easily measured gene product as a stand-in for the process of interest.

The target in experiment [1] is Bile acid receptor (Homo sapiens) (UniProt Q96RI1). To be noted: ROR/LXR/VP16, FXR, activation potency.
Experiment [2] addresses Oxysterols receptor LXR-beta (Homo sapiens) (UniProt P55055). To be noted: ROR/LXR/VP16, activation potency.
The target of experiment [3] is Glucose-6-phosphatase catalytic subunit 1 (Homo sapiens) (UniProt P35575). To be noted: ROR/LXR/VP16, G6Pase Promoter.
Chain of Glucose-6-phosphatase catalytic subunit 1 (Homo sapiens) (P35575 whole entry, looked up): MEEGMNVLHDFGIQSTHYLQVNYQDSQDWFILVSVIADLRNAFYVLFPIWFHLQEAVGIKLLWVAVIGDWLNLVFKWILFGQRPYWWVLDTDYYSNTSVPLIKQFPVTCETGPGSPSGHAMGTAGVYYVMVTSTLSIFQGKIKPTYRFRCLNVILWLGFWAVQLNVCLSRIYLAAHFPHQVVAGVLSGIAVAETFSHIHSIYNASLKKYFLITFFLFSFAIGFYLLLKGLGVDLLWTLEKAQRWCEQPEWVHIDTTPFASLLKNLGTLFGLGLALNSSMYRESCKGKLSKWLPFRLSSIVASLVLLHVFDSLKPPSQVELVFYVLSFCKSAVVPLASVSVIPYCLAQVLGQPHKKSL

The EC50 is the concentration at which the effect is half-maximal. Higher therefore signals lower potency in that assay. One may read the IC50 as the midpoint of a concentration-inhibition curve.

The structures appear in SMILES notation. Some results are limits rather than exact numbers.

Chain of Bile acid receptor (Homo sapiens) (Q96RI1 whole entry, looked up): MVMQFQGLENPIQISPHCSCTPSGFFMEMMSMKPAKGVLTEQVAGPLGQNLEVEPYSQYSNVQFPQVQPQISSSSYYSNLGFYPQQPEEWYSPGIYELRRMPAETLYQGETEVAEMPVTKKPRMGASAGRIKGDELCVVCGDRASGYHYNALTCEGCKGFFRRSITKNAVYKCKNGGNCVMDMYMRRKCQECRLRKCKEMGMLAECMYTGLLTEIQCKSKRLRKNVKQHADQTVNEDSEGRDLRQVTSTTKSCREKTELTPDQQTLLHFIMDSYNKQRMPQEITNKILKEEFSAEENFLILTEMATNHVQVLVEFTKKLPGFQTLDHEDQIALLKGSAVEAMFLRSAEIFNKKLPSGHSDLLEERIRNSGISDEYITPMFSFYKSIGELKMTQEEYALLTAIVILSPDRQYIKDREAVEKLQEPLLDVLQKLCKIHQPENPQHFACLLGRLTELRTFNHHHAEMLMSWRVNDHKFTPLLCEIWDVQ
Chain of Oxysterols receptor LXR-beta (Homo sapiens) (P55055 whole entry, looked up): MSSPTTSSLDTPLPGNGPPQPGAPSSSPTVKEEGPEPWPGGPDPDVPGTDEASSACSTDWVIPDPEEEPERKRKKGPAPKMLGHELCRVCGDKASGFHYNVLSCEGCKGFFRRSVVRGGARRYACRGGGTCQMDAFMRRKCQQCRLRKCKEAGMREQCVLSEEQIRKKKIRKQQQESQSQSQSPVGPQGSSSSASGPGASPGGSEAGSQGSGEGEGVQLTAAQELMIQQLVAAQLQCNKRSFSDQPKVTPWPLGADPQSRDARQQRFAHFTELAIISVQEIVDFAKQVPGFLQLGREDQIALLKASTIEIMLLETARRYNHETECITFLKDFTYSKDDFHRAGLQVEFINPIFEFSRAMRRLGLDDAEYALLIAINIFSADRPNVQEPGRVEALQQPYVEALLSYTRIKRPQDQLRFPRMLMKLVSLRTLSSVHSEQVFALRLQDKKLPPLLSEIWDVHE

As for `O=S(=O)(Nc1ccc(C(O)(C(F)(F)F)C(F)(F)F)cc1)c1cccc2cccnc12`, the concentration for a half-maximal effect (EC50) in experiment [1] was > 20 µM; in experiment [2], > 6 µM.

As to `CC(C)(C)c1ccc(S(=O)(=O)Nc2ccc(C(O)(C(F)(F)F)C(F)(F)F)cc2)cc1`, the EC50 in experiment [1] and in experiment [2] was > 20 µM in each case. In addition, the concentration for half-maximal inhibition (IC50) in experiment [3] was 8.4 µM.

In the case of `O=S(=O)(Nc1ccc(C(O)(C(F)(F)F)C(F)(F)F)cc1)c1ccc(Cl)c2nonc12`, the EC50 in experiment [1] was > 20 µM; in experiment [2] it was 12 µM.

For the compound `O=S(=O)(Nc1ccc(C(O)(C(F)(F)F)C(F)(F)F)cc1)c1cccc2ccccc12`, the values for the EC50 in experiment [1] and in experiment [2] were 12 µM and 5.7 µM, respectively.

In the case of `COc1cccc(S(=O)(=O)Nc2ccc(C(O)(C(F)(F)F)C(F)(F)F)cc2)c1`, the EC50 is > 20 µM in experiment [1] and 18 µM in experiment [2].

For the origin of these results see PubChem BioAssay AID2117 (The Scripps Research Institute Molecular Screening Center, 2009).
